Measurements taken from patent publication US4822606A, “Immunosuppressive synthetic peptides and analogs thereof based on retroviral envelope sequences” (Duke University, priority 1986, dated 1989).
Ends that are not written are not given here.

Columns and labels:
human lymphocytes = experiment: Binding of [^125 I]-CKS-17-BSA to cultured human lymphocytes; settings: >1000 fold excess of unlabeled BSA conjugate
Description: Human mononuclear cells were stimulated for 3 days with PHA, washed free of lectin, cultured for 10 days with 10% of a human IL-2 preparation (electronucleonics) washed and resuspended to 5×10^6 cells/ml in phosphate-buffered-saline, pH 7.2 (PBS) containing 0.1% BSA. […] Binding was terminated and unbounded [^125 I]-CKS-17-BSA removed by rapid (30 sec.) centrifugation of the cells through oil. The cell associated radioactivity was measured using a gamma radiation counter.

human monocytes = experiment: Monocyte superoxide anion (O2^-) release; assay type: cell-based; settings: WGA stimulated, peptide coupled to BSA, mean ± SE
[1] = tested on: lymphocytes from two non-related individuals; experiment: Human two-way mixed leukocyte culture (MLC); assay type: cell-based; settings: four experiments, final 24 h of 6 day culture, coupled to BSA
Description: Fifty μl of RPMI containing 1×10^5 lymphocytes from each of two non-related individuals was added to each well of a 96 well tissue culture plate. An additional 50 μl of RPMI was added and cultures were incubated at 37° C. in humidified 5% CO2 for 5 days. Fifty μl of RPMI containing either peptide or no addition was added for an additional 24 hr. During the final 4 hr of incubation each well was incubated with 25 μl of RPMI containing 0.5 μCi of ^3 H-thymidine and incorporated radionucleotide determined as above.

NIH/3T3 fibroblasts = experiment: Fibroblast proliferation, NIH/3T3; assay type: cell-based; settings: 2 or 3 days, dilutions 1:20, 1:40, 1:80
Description: (§1) CKS-17 was added at concentrations of 1:20, 1:40 and 1:80 to monolayers of Balb/3T3 or NIH/3T3 fibroblasts (ca. 1/3 confluent) in 96 well tissue culture plates. The cells were grown for an addition 2-3 days and pulsed with 1.0 μCi ^3 H-thymidine./well for the final 24 hours. The culture media was removed and the cells washed once before disruption with 0.5 ml of 0.5 N NaOH. The radiolabeled nucleic acids were then harvested onto glass fibe filters as described.

[2] = tested on: Balb/c and NIH/Swiss splenic lymphocytes; experiment: Murine two-way mixed leukocyte culture (MLC); assay type: cell-based; settings: coupled to BSA; for average inhibition of murine MLC response (mean±SEM): 3 day MLC, three experiments
Description: Fifty μl RPMI containing 1×10^5 Balb/c splenic lymphocytes and 50 μl containing 1×10^5 NIH/Swiss splenic lymphocytes were added to each well of a 96 well tissue culture plate. An additional 50 μl of RPMI containing peptide or no additives was added to each well and the cultures incubated for 3 to 5 days at 37° C in humidified 5% CO^2 Cultures were pulsed for 4 hr with 0.5 μCi of ^3 H-thymidine in 50 μl of RPMI before harvesting onto glass fiber filters.

Immunization of rabbits = assay type: in vivo, rabbit
[3] = tested on: human lymphocytes stimulated with Con A; experiment: Human lymphocyte proliferative response to Con A; assay type: cell-based; settings: addition 24 hr. after Con A; coupled to BSA
[4] = tested on: T4^+ and T8^+ lymphocytes, B cells, NK cells and phagocytes; experiment: Preliminary double-labeling studies; assay type: binding
Balb/3T3 fibroblasts = experiment: Fibroblast proliferation, Balb/3T3; assay type: cell-based; settings: 2 or 3 days, dilutions 1:20, 1:40, 1:80
Description: as §1

murine CTLL-2 cells = experiment: Murine cytotoxic T lymphocyte (CTLL-2) IL-2 dependent proliferation assay; assay type: cell-based; settings: for average inhibition of CTLL-2 cell proliferation: 24 experiments; for ^3H-TdR incorporation, CPM ± SD of quadruplicate samples: 24 h;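 as to all read-outs here: CTLL-2 cells, 4 x 10^3 per well in 96-well plates with RPMI plus 6% FBS, proliferation read as cell-bound radioactivity counted by liquid scintillation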
Description: Fifty μ1 of RPMI (6% FBS, 0% IL-2) containing 4 x 10^3 CTLL-2 cells was added to each well of a 96 well tissue culture plate (Falcon, Oxnard, CA). To each well was then added 50 μl of RPMI 1640 containing 3% human IL-2 50 μl of either RPMI or RPMI containing synthetic peptides. Cultures were then incubated for 24 hours at 37° C. in humidified 5% CO^2 Fifty μl of RPMI containing 1 μCi of ^3 H-thymidine (6.7 Ci/mmole; New England Nuclear, Boston, MA) was added to each well for the final 4 hours of cultures. Cells were collected by filtration onto glass fiber filters and incorporated radioactivity determined by liquid scintillation spectrophotometry.

[5] = tested on: human lymphocytes stimulated with Con A; experiment: Human lymphocyte proliferative response to Con A; assay type: cell-based; settings: coupled to BSA
Description: One hundred μl of RPMI containing 2×10^5 lymphocytes was added to each well of a 96 well tissue culture plate. […] The cultures were incubated for 72 hr at 37° C. in 5% humidified CO2, pulsed with ^3 Hthymidine (0.,5 μCi/well, 4h.) and the incorporated radioactivity determined as described above. The concentration of OKT3 antibody used was previously determined to give 75-100% of a maximal response.

[6] = Expt. 1, dilution 1:40, coupled to BSA
[7] = Expt. 1, dilution 1:80, coupled to BSA
[8] = Expt. 2, dilution 1:40, coupled to BSA
[9] = Expt. 2, dilution 1:80, coupled to BSA

## LQNRRGLDLLFLKEGGL [CKS-17]
Human lymphocytes
  inhibition of [^125 I]-CKS-17-BSA binding by excess unlabelled material: binding could be inhibited
Human monocytes; dilution 1:20
  O2^- Release: 6.0 ± 0.5 nmoles/5 minues/1.2 × 10^6 mon
Human monocytes; dilution 1:40
  O2^- Release: 8.3 ± 0.5 nmoles/5 minues/1.2 × 10^6 mon
[1]; dilution 1:20
  average inhibition of human two-way MLC (mean±SEM): 92±2
[1]; dilution 1:40
  average inhibition of human two-way MLC (mean±SEM): 64±11
[1]; dilution 1:80
  average inhibition of human two-way MLC (mean±SEM): 18±3
NIH/3T3 fibroblasts
  effect upon ^3H-thymidine incorporation: no effect
[2]; dilution 1:20
  average inhibition of murine MLC response (mean±SEM): 94±2%
[2]; dilution 1:30
  average inhibition of murine MLC response (mean±SEM): 74±4%
[2]; dilution 1:80
  average inhibition of murine MLC response (mean±SEM): 48±9%
[2]; five-day MLC
  effect on five-day murine MLC reactions: blocked
Immunization of rabbits
  antibodies elicited by immunization of rabbits: elicited antibodies which react with free peptide and the native viral protein
[3]
  inhibition when peptide is added 24 hr. after the mitogen: comparable levels of inhibition
[4]
  cell types bound: binds to T4^+ and T8^+ lymphocytes, B cells, NK cells and phagocytes
Balb/3T3 fibroblasts
  effect upon ^3H-thymidine incorporation: no effect
Murine CTLL-2 cells; dilution 1:20, coupled to BSA
  average inhibition of CTLL-2 cell proliferation: 49.6%
Murine CTLL-2 cells; dilution 1:40, coupled to BSA
  average inhibition of CTLL-2 cell proliferation: 22.0%
Murine CTLL-2 cells; dilution 1:80, coupled to BSA
  average inhibition of CTLL-2 cell proliferation: 9.4%
Murine CTLL-2 cells; CTLL-2 cells, coupled to BSA
  short term toxic effect, trypan blue dye exclusion: not due to either a short term toxic effect
Murine CTLL-2 cells; Expt. 1, dilution 1:20 (ca. 7.3 μM), coupled to BSA
  % inhibition of CTLL-2 proliferation: 76%
Murine CTLL-2 cells; Expt. 1, dilution 1:20, coupled to BSA
  ^3H-TdR incorporation, CPM ± SD of quadruplicate samples: 15,255 ± 277 CPM
Murine CTLL-2 cells; [6]
  % inhibition of CTLL-2 proliferation: 34%
  ^3H-TdR incorporation, CPM ± SD of quadruplicate samples: 42,827 ± 1386 CPM
Murine CTLL-2 cells; [7]
  % inhibition of CTLL-2 proliferation: 7%
  ^3H-TdR incorporation, CPM ± SD of quadruplicate samples: 60,005 ± 1425 CPM
Murine CTLL-2 cells; Expt. 2, dilution 1:20 (ca. 7.3 μM), coupled to BSA
  % inhibition of CTLL-2 proliferation: 64%
Murine CTLL-2 cells; Expt. 2, dilution 1:20, coupled to BSA
  ^3H-TdR incorporation, CPM ± SD of quadruplicate samples: 10,950 ± 2171 CPM
Murine CTLL-2 cells; [8]
  % inhibition of CTLL-2 proliferation: 24%
  ^3H-TdR incorporation, CPM ± SD of quadruplicate samples: 23,128 ± 3288 CPM
Murine CTLL-2 cells; [9]
  % inhibition of CTLL-2 proliferation: 1%
  ^3H-TdR incorporation, CPM ± SD of quadruplicate samples: 29,980 ± 3490 CPM
Murine CTLL-2 cells; ca. 15 μM, coupled to BSA
  incubation required for maximal inhibition of CTLL-2 cell proliferation: 16 h
Murine CTLL-2 cells; coupled to BSA
  reversal of inhibition by increasing the concentration of IL-2 twenty-fold: could not be reversed
Murine CTLL-2 cells; free (unconjugated) peptide
  effect upon the CTLL-2 cells: no effect
[5]; Expt. 1, dilution 1:10
  % inhibition of Con A stimulated proliferation: 88%
  ^3H-TdR incorporation, CPM ± SD of quadruplicate samples: 11,170 ± 3572 CPM
[5]; Expt. 1, dilution 1:20
  % inhibition of Con A stimulated proliferation: 58%
  ^3H-TdR incorporation, CPM ± SD of quadruplicate samples: 38,132 ± 11,989 CPM
[5]; Expt. 1, dilution 1:40
  % inhibition of Con A stimulated proliferation: 58%
  ^3H-TdR incorporation, CPM ± SD of quadruplicate samples: 38,085 ± 10,678 CPM
[5]; Expt. 1, dilution 1:80
  % inhibition of Con A stimulated proliferation: 48%
  ^3H-TdR incorporation, CPM ± SD of quadruplicate samples: 46,815 ± 601 CPM
[5]; Expt. 2, dilution 1:10
  % inhibition of Con A stimulated proliferation: 66%
  ^3H-TdR incorporation, CPM ± SD of quadruplicate samples: 34,601 ± 3914 CPM
[5]; Expt. 2, dilution 1:20
  % inhibition of Con A stimulated proliferation: 38%
  ^3H-TdR incorporation, CPM ± SD of quadruplicate samples: 62,445 ± 3602 CPM
[5]; Expt. 2, dilution 1:40
  % inhibition of Con A stimulated proliferation: 17%
  ^3H-TdR incorporation, CPM ± SD of quadruplicate samples: 83,154 ± 4422 CPM
[5]; Expt. 2, dilution 1:80
  % inhibition of Con A stimulated proliferation: 5%
  ^3H-TdR incorporation, CPM ± SD of quadruplicate samples: 95,395 ± 45 CPM
[5]; text: 1:20 dilution (ca. 7.5μM)
  incorporation of ^3H-thymidine blocked: up to 88%
